Measured values taken from ChEMBL document CHEMBL3132769, “Fragment growing to retain or alter the selectivity of anchored kinase hinge-binding fragments” (Medchemcomm, 2014).

Legend:
[1] = biological target: Protein kinase C theta type (Homo sapiens) (UniProt Q04759); assay: Inhibition of human truncated PKC theta expressed in baculovirus assessed as substrate phosphorylation using fluorescence-labelled peptides as substrate at 95 uM after 90 mins by microfluidic peptide phosphorylation assay
[2] = biological target: Serine/threonine-protein kinase MARK2 (Homo sapiens) (UniProt Q7KZI7); assay: Inhibition of human full length MARK2 expressed in baculovirus assessed as substrate phosphorylation using fluorescence-labelled peptides as substrate at 95 uM after 90 mins by microfluidic peptide phosphorylation assay
Chain of Serine/threonine-protein kinase MARK2 (Homo sapiens) (Q7KZI7 whole entry, the tested form may be a part): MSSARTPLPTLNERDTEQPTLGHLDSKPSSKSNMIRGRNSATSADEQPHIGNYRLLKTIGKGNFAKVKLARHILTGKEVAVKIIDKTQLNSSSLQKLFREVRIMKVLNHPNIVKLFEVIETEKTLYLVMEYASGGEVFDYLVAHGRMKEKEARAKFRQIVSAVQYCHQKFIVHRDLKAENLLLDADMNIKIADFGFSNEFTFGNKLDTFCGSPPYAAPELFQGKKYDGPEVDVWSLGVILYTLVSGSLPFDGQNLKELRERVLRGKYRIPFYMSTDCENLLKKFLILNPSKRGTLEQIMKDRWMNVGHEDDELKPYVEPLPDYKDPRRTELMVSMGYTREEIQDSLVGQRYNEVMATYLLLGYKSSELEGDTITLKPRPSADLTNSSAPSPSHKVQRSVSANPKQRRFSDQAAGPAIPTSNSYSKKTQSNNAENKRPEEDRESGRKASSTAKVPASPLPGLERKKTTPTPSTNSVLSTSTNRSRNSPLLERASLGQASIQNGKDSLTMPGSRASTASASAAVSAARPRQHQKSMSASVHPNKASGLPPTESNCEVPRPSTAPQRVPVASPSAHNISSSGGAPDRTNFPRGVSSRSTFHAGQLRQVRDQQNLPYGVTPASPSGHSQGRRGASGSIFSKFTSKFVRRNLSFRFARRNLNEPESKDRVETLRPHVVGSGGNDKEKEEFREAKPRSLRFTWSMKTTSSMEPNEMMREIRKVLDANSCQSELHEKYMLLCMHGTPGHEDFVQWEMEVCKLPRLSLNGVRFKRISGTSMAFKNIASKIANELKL

[3] = biological target: Epidermal growth factor receptor (Homo sapiens) (UniProt P00533); assay: Inhibition of human EGFR catalytic domain expressed in baculovirus assessed as substrate phosphorylation using fluorescence-labelled peptides as substrate at 8 uM after 90 mins by microfluidic peptide phosphorylation assay
Chain of Epidermal growth factor receptor (Homo sapiens) (P00533 whole entry, the tested form may be a part): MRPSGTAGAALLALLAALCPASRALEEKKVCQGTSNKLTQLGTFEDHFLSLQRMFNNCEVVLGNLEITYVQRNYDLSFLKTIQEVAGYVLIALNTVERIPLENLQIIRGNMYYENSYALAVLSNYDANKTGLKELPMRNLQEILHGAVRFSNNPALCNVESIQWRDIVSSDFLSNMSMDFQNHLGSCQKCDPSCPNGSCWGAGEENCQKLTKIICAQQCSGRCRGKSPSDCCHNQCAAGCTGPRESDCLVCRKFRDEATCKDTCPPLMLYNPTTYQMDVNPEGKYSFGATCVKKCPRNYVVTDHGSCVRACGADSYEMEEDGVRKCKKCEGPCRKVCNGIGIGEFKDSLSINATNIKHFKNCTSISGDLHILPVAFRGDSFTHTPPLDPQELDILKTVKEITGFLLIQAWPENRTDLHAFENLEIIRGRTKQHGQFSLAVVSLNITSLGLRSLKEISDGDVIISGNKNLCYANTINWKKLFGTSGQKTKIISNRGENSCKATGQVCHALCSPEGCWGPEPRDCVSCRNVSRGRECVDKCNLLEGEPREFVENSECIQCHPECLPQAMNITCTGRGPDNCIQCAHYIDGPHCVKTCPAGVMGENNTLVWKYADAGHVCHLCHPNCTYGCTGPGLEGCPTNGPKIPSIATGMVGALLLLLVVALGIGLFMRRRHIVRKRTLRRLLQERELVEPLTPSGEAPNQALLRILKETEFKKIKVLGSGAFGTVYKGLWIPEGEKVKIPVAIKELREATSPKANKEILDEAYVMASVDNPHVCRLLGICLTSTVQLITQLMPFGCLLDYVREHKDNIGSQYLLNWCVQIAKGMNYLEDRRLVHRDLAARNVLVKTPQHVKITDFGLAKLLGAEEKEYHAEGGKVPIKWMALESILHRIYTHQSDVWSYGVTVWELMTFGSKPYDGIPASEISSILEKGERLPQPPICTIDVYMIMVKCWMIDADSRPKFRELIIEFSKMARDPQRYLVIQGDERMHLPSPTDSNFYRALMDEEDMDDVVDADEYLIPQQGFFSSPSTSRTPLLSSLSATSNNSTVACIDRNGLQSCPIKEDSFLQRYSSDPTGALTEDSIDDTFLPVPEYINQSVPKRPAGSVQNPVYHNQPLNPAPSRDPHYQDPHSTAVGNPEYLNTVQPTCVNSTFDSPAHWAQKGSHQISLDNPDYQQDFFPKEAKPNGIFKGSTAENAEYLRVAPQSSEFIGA

[4] = biological target: T1, Serine/threonine-protein kinase Sgk3 (Homo sapiens) (UniProt Q96BR1); assay: Inhibition of human full length SGK3 expressed in baculovirus assessed as substrate phosphorylation using fluorescence-labelled peptides as substrate at 8 uM after 90 mins by microfluidic peptide phosphorylation assay
T1 sequence (whole entry): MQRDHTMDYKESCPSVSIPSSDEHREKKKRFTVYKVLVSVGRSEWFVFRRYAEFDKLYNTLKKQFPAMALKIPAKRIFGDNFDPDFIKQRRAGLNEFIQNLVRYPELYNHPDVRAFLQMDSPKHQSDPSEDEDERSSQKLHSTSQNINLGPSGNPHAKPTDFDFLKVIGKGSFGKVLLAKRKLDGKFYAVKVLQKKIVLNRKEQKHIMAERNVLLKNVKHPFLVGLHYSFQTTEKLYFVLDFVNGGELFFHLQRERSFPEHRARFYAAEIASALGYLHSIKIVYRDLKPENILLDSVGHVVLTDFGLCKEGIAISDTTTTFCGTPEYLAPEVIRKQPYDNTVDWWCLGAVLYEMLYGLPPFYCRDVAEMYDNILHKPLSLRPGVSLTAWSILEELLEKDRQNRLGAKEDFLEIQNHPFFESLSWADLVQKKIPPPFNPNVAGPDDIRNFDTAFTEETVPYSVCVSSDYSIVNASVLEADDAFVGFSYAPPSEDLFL

[5] = biological target: T2, Protein kinase C zeta type (Homo sapiens) (UniProt Q05513); assay: Inhibition of human full length PKC zeta expressed in baculovirus assessed as substrate phosphorylation using fluorescence-labelled peptides as substrate at 0.06 uM after 90 mins by microfluidic peptide phosphorylation assay
T2 sequence (whole entry): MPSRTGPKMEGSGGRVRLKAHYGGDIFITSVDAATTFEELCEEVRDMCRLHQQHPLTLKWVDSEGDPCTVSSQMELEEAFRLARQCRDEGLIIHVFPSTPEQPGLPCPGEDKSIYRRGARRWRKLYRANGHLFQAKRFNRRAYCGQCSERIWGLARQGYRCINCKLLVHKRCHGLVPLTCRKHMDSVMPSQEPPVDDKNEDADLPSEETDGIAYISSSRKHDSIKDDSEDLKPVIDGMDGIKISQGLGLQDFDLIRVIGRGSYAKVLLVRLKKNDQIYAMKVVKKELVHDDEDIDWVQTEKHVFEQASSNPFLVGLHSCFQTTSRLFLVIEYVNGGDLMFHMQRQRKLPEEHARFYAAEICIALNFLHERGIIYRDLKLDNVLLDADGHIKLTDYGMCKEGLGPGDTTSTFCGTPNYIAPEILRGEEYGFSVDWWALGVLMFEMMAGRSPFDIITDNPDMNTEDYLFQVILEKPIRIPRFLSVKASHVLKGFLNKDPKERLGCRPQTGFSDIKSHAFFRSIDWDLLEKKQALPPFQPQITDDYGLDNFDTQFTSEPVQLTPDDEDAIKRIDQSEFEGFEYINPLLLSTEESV

[6] = biological target: T3, Cytoplasmic tyrosine-protein kinase BMX (Homo sapiens) (UniProt P51813); assay: Inhibition of human full length BMX expressed in baculovirus assessed as substrate phosphorylation using fluorescence-labelled peptides as substrate at 0.1 uM after 90 mins by microfluidic peptide phosphorylation assay
T3 sequence (whole entry): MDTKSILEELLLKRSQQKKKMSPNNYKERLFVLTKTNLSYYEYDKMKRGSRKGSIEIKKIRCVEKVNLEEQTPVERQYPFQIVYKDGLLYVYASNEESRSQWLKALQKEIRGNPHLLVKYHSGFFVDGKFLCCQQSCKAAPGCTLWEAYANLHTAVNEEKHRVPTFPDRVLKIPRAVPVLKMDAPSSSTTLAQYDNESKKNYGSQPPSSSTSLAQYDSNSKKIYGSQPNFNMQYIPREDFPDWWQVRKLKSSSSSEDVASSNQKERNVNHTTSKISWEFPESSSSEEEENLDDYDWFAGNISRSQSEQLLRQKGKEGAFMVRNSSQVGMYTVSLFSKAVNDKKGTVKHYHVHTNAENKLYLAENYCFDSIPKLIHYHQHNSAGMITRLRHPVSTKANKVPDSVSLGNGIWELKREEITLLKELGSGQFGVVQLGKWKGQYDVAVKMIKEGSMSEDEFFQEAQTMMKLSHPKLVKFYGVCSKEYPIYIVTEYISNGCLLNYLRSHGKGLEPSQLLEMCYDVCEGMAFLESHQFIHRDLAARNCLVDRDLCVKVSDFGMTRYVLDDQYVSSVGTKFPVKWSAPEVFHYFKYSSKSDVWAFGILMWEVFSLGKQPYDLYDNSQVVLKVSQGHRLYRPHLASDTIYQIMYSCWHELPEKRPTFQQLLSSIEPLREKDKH

[7] = biological target: Protein kinase C eta type (Homo sapiens) (UniProt P24723); assay: Inhibition of human truncated PKC eta expressed in baculovirus assessed as substrate phosphorylation using fluorescence-labelled peptides as substrate at […] after 90 mins by microfluidic peptide phosphorylation assay
Chain of Protein kinase C eta type (Homo sapiens) (P24723 whole entry, the tested form may be a part): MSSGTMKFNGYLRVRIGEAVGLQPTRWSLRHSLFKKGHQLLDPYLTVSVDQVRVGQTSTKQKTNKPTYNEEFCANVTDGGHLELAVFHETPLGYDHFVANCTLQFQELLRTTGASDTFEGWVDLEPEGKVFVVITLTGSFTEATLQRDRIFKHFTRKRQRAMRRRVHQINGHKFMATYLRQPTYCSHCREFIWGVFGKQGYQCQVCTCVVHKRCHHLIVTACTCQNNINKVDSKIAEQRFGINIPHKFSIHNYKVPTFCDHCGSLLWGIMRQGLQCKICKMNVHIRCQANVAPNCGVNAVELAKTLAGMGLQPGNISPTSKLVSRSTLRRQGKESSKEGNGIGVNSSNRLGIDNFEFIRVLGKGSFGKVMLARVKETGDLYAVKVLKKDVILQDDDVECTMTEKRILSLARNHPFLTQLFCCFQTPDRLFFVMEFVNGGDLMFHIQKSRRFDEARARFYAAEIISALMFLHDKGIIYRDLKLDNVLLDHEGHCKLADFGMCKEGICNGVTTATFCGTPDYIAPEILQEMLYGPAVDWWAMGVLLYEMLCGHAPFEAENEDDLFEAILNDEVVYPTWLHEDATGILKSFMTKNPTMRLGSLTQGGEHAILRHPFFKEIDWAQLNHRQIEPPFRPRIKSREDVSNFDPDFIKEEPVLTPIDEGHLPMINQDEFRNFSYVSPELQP

[8] = biological target: RAF proto-oncogene serine/threonine-protein kinase (Homo sapiens) (UniProt P04049); assay: Inhibition of human truncated c-Raf expressed in baculovirus assessed as substrate phosphorylation using fluorescence-labelled peptides as substrate at […] after 90 mins by microfluidic peptide phosphorylation assay
Chain of RAF proto-oncogene serine/threonine-protein kinase (Homo sapiens) (P04049 whole entry, the tested form may be a part): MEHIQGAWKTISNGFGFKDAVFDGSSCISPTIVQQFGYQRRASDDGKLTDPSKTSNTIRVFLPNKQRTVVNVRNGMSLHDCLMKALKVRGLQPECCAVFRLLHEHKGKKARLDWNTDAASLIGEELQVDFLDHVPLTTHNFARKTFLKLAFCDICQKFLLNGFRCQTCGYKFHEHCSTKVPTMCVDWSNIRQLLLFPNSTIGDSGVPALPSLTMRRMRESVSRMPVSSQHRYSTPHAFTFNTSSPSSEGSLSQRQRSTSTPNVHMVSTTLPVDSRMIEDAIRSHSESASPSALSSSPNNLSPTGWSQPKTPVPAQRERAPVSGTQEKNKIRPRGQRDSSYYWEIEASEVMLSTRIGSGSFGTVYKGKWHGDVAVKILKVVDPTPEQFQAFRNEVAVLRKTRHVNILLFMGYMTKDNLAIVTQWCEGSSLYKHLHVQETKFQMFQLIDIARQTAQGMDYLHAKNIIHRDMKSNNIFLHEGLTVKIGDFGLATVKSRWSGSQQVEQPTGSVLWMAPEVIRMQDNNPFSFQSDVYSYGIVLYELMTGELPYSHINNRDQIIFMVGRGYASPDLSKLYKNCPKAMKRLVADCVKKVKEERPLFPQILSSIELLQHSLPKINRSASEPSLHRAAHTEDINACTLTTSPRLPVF

[9] = biological target: MAP kinase-activated protein kinase 3 (Homo sapiens) (UniProt Q16644); assay: Inhibition of human full length MAPKAPK3 expressed in Escherichia coli cell assessed as substrate phosphorylation using fluorescence-labelled peptides as substrate at 420 uM after 90 mins by microfluidic peptide phosphorylation assay
Chain of MAP kinase-activated protein kinase 3 (Homo sapiens) (Q16644 whole entry, looked up): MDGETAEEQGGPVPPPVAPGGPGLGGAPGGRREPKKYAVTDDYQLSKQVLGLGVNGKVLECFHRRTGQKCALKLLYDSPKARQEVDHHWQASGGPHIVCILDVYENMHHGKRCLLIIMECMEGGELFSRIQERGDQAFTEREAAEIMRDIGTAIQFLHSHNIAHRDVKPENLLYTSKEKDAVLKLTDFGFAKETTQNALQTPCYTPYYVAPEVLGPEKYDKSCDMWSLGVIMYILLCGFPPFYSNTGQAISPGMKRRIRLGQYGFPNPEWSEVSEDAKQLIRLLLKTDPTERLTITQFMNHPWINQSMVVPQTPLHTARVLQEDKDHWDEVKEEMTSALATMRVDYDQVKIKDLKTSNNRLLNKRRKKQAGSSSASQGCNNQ

[10] = biological target: Cyclin-dependent kinase 2 (Homo sapiens) (UniProt P24941); assay: Inhibition of human full length CDK2 expressed in baculovirus assessed as substrate phosphorylation using fluorescence-labelled peptides as substrate at 420 uM after 90 mins by microfluidic peptide phosphorylation assay
[11] = biological target: T2, Protein kinase C zeta type (Homo sapiens); assay: Inhibition of human full length PKC zeta expressed in baculovirus assessed as substrate phosphorylation using fluorescence-labelled peptides as substrate at 420 uM after 90 mins by microfluidic peptide phosphorylation assay
[12] = biological target: Serine/threonine-protein kinase MARK1 (Homo sapiens) (UniProt Q9P0L2); assay: Inhibition of human full length MARK1 expressed in baculovirus assessed as substrate phosphorylation using fluorescence-labelled peptides as substrate at 9 uM after 90 mins by microfluidic peptide phosphorylation assay
[13] = biological target: Cyclin-dependent kinase 2 (Homo sapiens) (UniProt P24941); assay: Inhibition of human full length CDK2 expressed in baculovirus assessed as substrate phosphorylation using fluorescence-labelled peptides as substrate at 70 uM after 90 mins by microfluidic peptide phosphorylation assay

Chain of Protein kinase C theta type (Homo sapiens) (Q04759 whole entry, looked up, the tested form may be a part): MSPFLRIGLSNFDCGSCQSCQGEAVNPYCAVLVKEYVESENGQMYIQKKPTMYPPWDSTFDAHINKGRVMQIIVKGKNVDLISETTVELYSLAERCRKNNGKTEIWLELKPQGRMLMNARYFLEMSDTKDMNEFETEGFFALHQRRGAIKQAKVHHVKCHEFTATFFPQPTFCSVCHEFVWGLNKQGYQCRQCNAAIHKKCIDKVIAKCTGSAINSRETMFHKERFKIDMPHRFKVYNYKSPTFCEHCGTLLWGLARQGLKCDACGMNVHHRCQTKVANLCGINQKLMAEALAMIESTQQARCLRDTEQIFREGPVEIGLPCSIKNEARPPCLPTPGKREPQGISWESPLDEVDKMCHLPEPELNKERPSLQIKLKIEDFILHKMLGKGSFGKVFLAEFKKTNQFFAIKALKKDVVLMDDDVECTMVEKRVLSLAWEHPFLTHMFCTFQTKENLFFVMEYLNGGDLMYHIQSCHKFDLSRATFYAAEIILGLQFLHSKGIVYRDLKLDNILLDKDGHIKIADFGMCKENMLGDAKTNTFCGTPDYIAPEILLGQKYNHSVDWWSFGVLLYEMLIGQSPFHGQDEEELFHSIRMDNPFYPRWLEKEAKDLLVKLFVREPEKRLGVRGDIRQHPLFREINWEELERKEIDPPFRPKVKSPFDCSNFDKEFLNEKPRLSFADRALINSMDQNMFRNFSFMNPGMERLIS

SMILES: NCCc1ccc(-c2ncnc3[nH]cnc23)cc1
- inhibition [1]: 72%
- inhibition [2]: 67%

SMILES: NCC1CCN(c2ncnc3[nH]ccc23)CC1
- inhibition [3]: 33%
- inhibition [4]: 83%

SMILES: NC1(Cc2ccc(Cl)cc2)CCN(c2ncnc3[nH]ccc23)CC1
- inhibition [5]: 0%

SMILES: C[C@H](CN(C)C)Oc1nc(Nc2cc3cccc(Cl)c3cn2)cnc1C#N
- inhibition [6]: 3%

SMILES: COC(=O)c1cnc(Nc2cnc(C#N)cn2)cc1NCC1CCNCC1
- inhibition [7]: 1%
- inhibition [8]: 7%

SMILES: c1nc(N2CCOCC2)c2nc[nH]c2n1
- inhibition [9]: 96.5%
- inhibition [10]: 75%
- inhibition [11]: 46%

SMILES: NCC1CN(c2ncnc3[nH]c4cnccc4c23)CCO1 (stereo not drawn)
- inhibition [12]: 2%

SMILES: CNCc1ccc(-c2ncnc3[nH]cnc23)cc1
- inhibition [13]: 34%
